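96-well plates; 48 h exposure; 5 concentrations. Endpoints by linear interpolation between flanking doses. Not reached: highest tested concentration assigned. TGI: total growth inhibition.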 Some results are limits rather than exact numbers.

This is an account of results in PubChem BioAssay (NCI).

Among the test systems are SF-295 CNS; HCT-15 colon; SK-MEL-2 melanoma; MALME-3M melanoma; DU-145 prostate; KM12 colon; SNB-75 CNS; UACC-62 melanoma; SF-539 CNS; MOLT-4 leukemia; LOX IMVI melanoma; HS 578T breast; HOP-62 NSCLC; OVCAR-3 ovarian.
What all share (experiment): NCI anticancer screen, dose series, 48 h

As for `O=C(CN1CCOCC1)c1ccc2c(c1)oc(=O)n2CCN1CCCC1`, the TGI in the assay on SF-295 CNS, in the assay with HCT-15 colon, in the assay with SK-MEL-2 melanoma, in the assay with MALME-3M melanoma, in the assay with DU-145 prostate and with KM12 colon was over 100 µM throughout. The TGI with SNB-75 CNS, in the assay with UACC-62 melanoma, in the assay with SF-539 CNS, with MOLT-4 leukemia, in the assay on LOX IMVI melanoma and with HS 578T breast was over 100 µM each time. The TGI in the assay with HOP-62 NSCLC and in the assay on OVCAR-3 ovarian was over 100 µM throughout.
Take `O=c1c2cc(I)ccc2nc(SCc2n[nH]c(=S)o2)n1Cc1ccccc1`: the TGI was determined as 40 µM in the assay with SF-295 CNS; 34 µM with HCT-15 colon; 30.4 µM in the assay on SK-MEL-2 melanoma; 34.8 µM in the assay with MALME-3M melanoma; 31.1 µM in the assay with DU-145 prostate; 40.4 µM in the assay with KM12 colon. In addition, the TGI in the assay with SNB-75 CNS worked out at 23.1 µM; in the assay with UACC-62 melanoma, 25.4 µM; in the assay on SF-539 CNS, 30.3 µM; in the assay on MOLT-4 leukemia, 65.3 µM; with LOX IMVI melanoma, 29.1 µM; with HS 578T breast, 44.3 µM. The TGI in the assay with HOP-62 NSCLC was determined as 41 µM; in the assay on OVCAR-3 ovarian, 31.1 µM.
For `O=c1oc2ccc(Cl)cc2cc1-c1cn2ccccc2n1`, the TGI is 24.5 µM with SF-295 CNS; over 100 µM in the assay on HCT-15 colon; over 100 µM in the assay with SK-MEL-2 melanoma; 23.5 µM with MALME-3M melanoma; over 100 µM with DU-145 prostate; over 100 µM in the assay on KM12 colon. For the same molecule, the TGI in the assay with SNB-75 CNS was over 41.3 µM; in the assay with UACC-62 melanoma it was 38.2 µM; with SF-539 CNS, over 100 µM; in the assay on MOLT-4 leukemia, over 100 µM; in the assay with LOX IMVI melanoma it was over 100 µM; in the assay on HS 578T breast, over 100 µM. Moreover, the values for the TGI with HOP-62 NSCLC and in the assay on OVCAR-3 ovarian were 16.1 µM and over 100 µM, respectively.
In the case of `CO[C@@H]1C[C@H]2N3CC[C@@]2(c2cc4c(cc2C3)OCO4)[C@H]2O[C@@H]12`, the TGI with SF-295 CNS, with HCT-15 colon, in the assay with SK-MEL-2 melanoma, with MALME-3M melanoma, in the assay with DU-145 prostate and in the assay on KM12 colon was over 100 µM throughout. Further, the TGI in the assay with SNB-75 CNS is over 100 µM; in the assay with UACC-62 melanoma it was over 100 µM; in the assay on SF-539 CNS, 2.88 µM; with MOLT-4 leukemia it was over 100 µM; in the assay with LOX IMVI melanoma, over 100 µM; with HS 578T breast, over 100 µM. In addition, the TGI with HOP-62 NSCLC and in the assay on OVCAR-3 ovarian was over 100 µM throughout.
For `O=C(O)CN1CCN(CC(=O)N2CCN(C(=O)OCc3ccccc3)CC2)CCN(CC(=O)O)CCN(CC(=O)N2CCN(C(=O)OCc3ccccc3)CC2)CC1`, the TGI in the assay on SF-295 CNS, in the assay with HCT-15 colon, with SK-MEL-2 melanoma, with MALME-3M melanoma, in the assay with DU-145 prostate and with KM12 colon was over 100 µM throughout. Further, the TGI with SNB-75 CNS, in the assay with UACC-62 melanoma, in the assay on SF-539 CNS, in the assay with MOLT-4 leukemia, with LOX IMVI melanoma and with HS 578T breast was over 100 µM in each case. Moreover, the TGI with HOP-62 NSCLC and in the assay on OVCAR-3 ovarian was over 100 µM each time.
For the molecule `CC(C)(C)OC(=O)c1ccc(NCC2=CC(=O)C=CC2=O)cc1`, the TGI turned out to be 50.5 µM with SF-295 CNS; 20.5 µM with HCT-15 colon; 31.8 µM with SK-MEL-2 melanoma; 9.82 µM in the assay with MALME-3M melanoma; 31.6 µM in the assay on DU-145 prostate; 29.6 µM with KM12 colon. For the same molecule, the TGI in the assay on SNB-75 CNS turned out to be 24.3 µM; in the assay with UACC-62 melanoma it was 26 µM; in the assay with SF-539 CNS it was 12.7 µM; in the assay on MOLT-4 leukemia, 4.38 µM; in the assay on LOX IMVI melanoma, 22.6 µM; in the assay on HS 578T breast, 46 µM. In addition, the values for the TGI with HOP-62 NSCLC and in the assay on OVCAR-3 ovarian were over 61.8 µM and 16.1 µM, respectively.
Consider `CC(C)(C)c1cc(OCc2nnc3sc(=S)[nH]n23)c(Cl)cc1OCc1nnc2sc(=S)[nH]n12`, for which the TGI with SF-295 CNS was over 100 µM; with HCT-15 colon it was over 100 µM; in the assay with SK-MEL-2 melanoma it was 58.9 µM; with MALME-3M melanoma, 46.9 µM; in the assay with DU-145 prostate, 94 µM; with KM12 colon, 68.7 µM. Besides, the TGI is 92 µM in the assay with SNB-75 CNS; 32.6 µM with UACC-62 melanoma; over 100 µM with SF-539 CNS; over 100 µM with MOLT-4 leukemia; 34.2 µM in the assay on LOX IMVI melanoma; over 100 µM with HS 578T breast. For the same molecule, the TGI in the assay on HOP-62 NSCLC is over 100 µM; with OVCAR-3 ovarian it was 63.6 µM.
On to `CC1=CC(C)C(C)N(CCNS(=O)(=O)c2ccc(C)cc2)c2ccccc21` (centres undefined), for which the TGI in the assay on SF-295 CNS was 19.5 µM; with HCT-15 colon, over 31.6 µM; with SK-MEL-2 melanoma it was 18 µM; in the assay with MALME-3M melanoma, 23 µM; in the assay with DU-145 prostate, 24.7 µM; in the assay on KM12 colon, 37.3 µM. The TGI in the assay on SNB-75 CNS worked out at 23.4 µM; with UACC-62 melanoma it was 17.2 µM; in the assay on SF-539 CNS it was 18.1 µM; in the assay on MOLT-4 leukemia, 23.5 µM; in the assay with LOX IMVI melanoma it was 17 µM; with HS 578T breast it was 20.7 µM. The results for the TGI in the assay on HOP-62 NSCLC and in the assay with OVCAR-3 ovarian were 27 µM and 17.1 µM, respectively.
`O=C(O)C1(Cc2ccc3c(c2)CCC3)Cc2ccccc2C1`: the TGI with SF-295 CNS, in the assay on HCT-15 colon, with SK-MEL-2 melanoma, in the assay with MALME-3M melanoma, in the assay with DU-145 prostate and with KM12 colon was over 100 µM each time. The TGI in the assay with SNB-75 CNS, in the assay on UACC-62 melanoma, in the assay with SF-539 CNS, in the assay on MOLT-4 leukemia, with LOX IMVI melanoma and with HS 578T breast was over 100 µM in each case. For the same molecule, the TGI in the assay on HOP-62 NSCLC and in the assay with OVCAR-3 ovarian was over 100 µM throughout.
In the case of `CCN(CC)/[N+]([O-])=N/OCOC(C)=O`, the TGI in the assay with SF-295 CNS, in the assay with HCT-15 colon, in the assay with SK-MEL-2 melanoma, in the assay on MALME-3M melanoma, in the assay with DU-145 prostate and in the assay with KM12 colon was over 100 µM throughout. Moreover, the TGI with SNB-75 CNS, with UACC-62 melanoma, in the assay on SF-539 CNS, with MOLT-4 leukemia, with LOX IMVI melanoma and in the assay on HS 578T breast was over 100 µM each time. The TGI in the assay on HOP-62 NSCLC and in the assay on OVCAR-3 ovarian was over 100 µM throughout.
On to `CCOC(=O)/C=C/[C@H](O)[C@@H](O)/C=C/C(=O)OCC`, for which the TGI is over 100 µM with SF-295 CNS; 59.7 µM in the assay on HCT-15 colon; over 100 µM with SK-MEL-2 melanoma; 46.8 µM in the assay with MALME-3M melanoma; over 100 µM with DU-145 prostate; 47.6 µM in the assay with KM12 colon. Also, the TGI in the assay with SNB-75 CNS was over 100 µM; in the assay on UACC-62 melanoma it was 57.4 µM; in the assay on SF-539 CNS it was over 100 µM; in the assay on MOLT-4 leukemia it was 41.5 µM; in the assay on LOX IMVI melanoma, 74.2 µM; with HS 578T breast it was over 100 µM. Further, the TGI with HOP-62 NSCLC was determined as 85 µM; in the assay with OVCAR-3 ovarian, 64.7 µM.
For `CCCCCCOc1ccc(C(=O)N(C)O)cc1`, the TGI is over 62.4 µM in the assay with SF-295 CNS; over 82.9 µM in the assay on HCT-15 colon; over 100 µM in the assay with SK-MEL-2 melanoma; 57.3 µM in the assay on MALME-3M melanoma; 66 µM with DU-145 prostate; over 100 µM in the assay with KM12 colon. In addition, the TGI with SNB-75 CNS was over 94.4 µM; in the assay with UACC-62 melanoma it was 60.9 µM; in the assay on SF-539 CNS, 44.6 µM; in the assay on MOLT-4 leukemia it was 50.4 µM; in the assay with LOX IMVI melanoma it was over 100 µM; with HS 578T breast it was over 100 µM. Besides, the TGI is over 83.5 µM in the assay with HOP-62 NSCLC and over 100 µM in the assay with OVCAR-3 ovarian.
For `[O-][N+]1=NC(c2ccccc2)=C1c1ccccc1`, the TGI with SF-295 CNS, in the assay on HCT-15 colon, with SK-MEL-2 melanoma, in the assay on MALME-3M melanoma, in the assay with DU-145 prostate and in the assay with KM12 colon was over 50 µM each time. The TGI with SNB-75 CNS, in the assay on UACC-62 melanoma, in the assay on SF-539 CNS, with MOLT-4 leukemia, in the assay with LOX IMVI melanoma and in the assay on HS 578T breast was over 50 µM throughout. The TGI in the assay with HOP-62 NSCLC and with OVCAR-3 ovarian was over 50 µM each time.
For `N#Cc1c(O)c(N=Nc2ccc(Cl)cc2)c(=O)n2c1[nH]c1ccccc12`, the TGI with SF-295 CNS, in the assay with HCT-15 colon, in the assay on SK-MEL-2 melanoma, with MALME-3M melanoma, in the assay with DU-145 prostate and in the assay on KM12 colon was over 100 µM each time. Further, the TGI with SNB-75 CNS, in the assay with UACC-62 melanoma, in the assay with SF-539 CNS, with MOLT-4 leukemia, in the assay with LOX IMVI melanoma and with HS 578T breast was over 100 µM throughout. The TGI turned out to be 65.3 µM with HOP-62 NSCLC and 80.8 µM in the assay with OVCAR-3 ovarian.
Turning to `CCOC(=O)c1c(-c2ccc(Br)cc2)ccn1C`, the TGI with SF-295 CNS, in the assay with HCT-15 colon, in the assay on SK-MEL-2 melanoma, in the assay with MALME-3M melanoma, in the assay on DU-145 prostate and in the assay with KM12 colon was over 10 µM each time. Besides, the TGI in the assay on SNB-75 CNS, with UACC-62 melanoma, with SF-539 CNS, with MOLT-4 leukemia, in the assay on LOX IMVI melanoma and in the assay on HS 578T breast was over 10 µM in each case. Further, the TGI with HOP-62 NSCLC and in the assay on OVCAR-3 ovarian was over 10 µM each time.
As for `C=C(C)C(O)C(O)C[C@@H](C)C1CC[C@]23C[C@]12CCC1[C@@]2(C)CCC(OC(C)=O)C(C)(C)C2CC(OC2OC(CO)C(O)C(O)C2O)[C@]13C` (some centres undefined), the TGI in the assay on SF-295 CNS is 36.7 µM; in the assay with HCT-15 colon, over 100 µM; with SK-MEL-2 melanoma it was 30.6 µM; in the assay with MALME-3M melanoma, 32.3 µM; in the assay with DU-145 prostate, 43.3 µM; in the assay with KM12 colon, 31.8 µM. For the same molecule, the TGI with SNB-75 CNS worked out at 43 µM; in the assay on UACC-62 melanoma it was 31.8 µM; with SF-539 CNS, 27.8 µM; in the assay on MOLT-4 leukemia, 38.3 µM; in the assay with LOX IMVI melanoma, 32.3 µM; in the assay with HS 578T breast, 39.6 µM. The TGI with HOP-62 NSCLC turned out to be 31.9 µM; in the assay with OVCAR-3 ovarian, 32.3 µM.
